From patent publication US20090099199A1, “ORGANIC COMPOUNDS” (priority 2007, published 2009)
Structures can show the parent of a compound that is named as a salt.

Molecular target: T1, recombinant human NPY Y2 receptors (Homo sapiens, UniProt P49146)
T1 construct: expressed in transfected cells; host or cells: CHO-C4 cells (membrane preparation)
T1 sequence (P49146 1-381): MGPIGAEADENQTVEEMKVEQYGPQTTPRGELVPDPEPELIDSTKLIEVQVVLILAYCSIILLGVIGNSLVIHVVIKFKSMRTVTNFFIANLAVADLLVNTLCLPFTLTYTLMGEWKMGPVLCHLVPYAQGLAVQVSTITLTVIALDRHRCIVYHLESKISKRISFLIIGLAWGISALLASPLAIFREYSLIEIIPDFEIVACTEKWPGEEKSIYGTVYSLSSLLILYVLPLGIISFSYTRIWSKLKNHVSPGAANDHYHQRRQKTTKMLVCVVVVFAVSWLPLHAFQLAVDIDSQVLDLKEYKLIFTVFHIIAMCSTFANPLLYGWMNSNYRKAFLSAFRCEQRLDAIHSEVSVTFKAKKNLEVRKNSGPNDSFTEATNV
Assay: Scintillation proximity [35S]GTPγS binding assay (inhibition of 0.5 nM NPY-stimulated [35S]GTPγS binding)
Assay type: biochemical
Settings: 10 μM compound, membranes from CHO-C4 cells expressing recombinant human NPY Y2 receptors, read-out: [%] inhibiton at 10 μM
Protocol: Preparation of Membranes: CHO-C4 cells expressing recombinant human NPY Y2 receptors were used to prepare membranes for the GTPγS assay. Cells were grown to 80-95% confluency on 15-cm (225 cm^2) tissue culture plates. After aspiration of the culture medium, cells were washed twice with 18 ml ice-cold phosphate-buffered saline (PBS), scraped off and suspended in 3 ml ice-cold PBS in pre-cooled centrifuge tubes. The dishes were rinsed with 2 ml ice-cold PBS per dish and the washings were combined with the PBS cell suspension from above. Cells pooled from 5-7 dishes were centrifuged for 5 min at 10,000 rpm (12,000 g) in a Sorvall RC5B centrifuge using an SS34 rotor at 4° C. The cell pellet was resuspended in 5 ml ice-cold buffer (20 mM HEPES, 10 mM EDTA; pH 7.4) by vortexing (2-5 sec), homogenized using a Polytron (step 4 for 20-30 sec), and ice-cold buffer added to 25 ml. The suspension was centrifuged again for 20 min at 18,000 rpm (39,000 g) at 4° C. and the pellet resuspended in 5 ml ice-cold buffer (20 mM HEPES, 0.1 mM EDTA; pH 7.4) by vortexing (2-5 sec), homogenized with a Polytron (step 4 for 10 sec), and ice-cold buffer added to 25 ml. The suspension was centrifuged a third time for 20 min at 18,000 rpm (39,000 g) at 4° C. The pellet was resuspend in 1 ml ice-cold buffer (20 mM HEPES, 0.1 mM EDTA; pH 7.4) by vortexing (5-8 sec). Two to five resuspended pellets were combined and homogenized using a Polytron (step 4 for 15-25 sec). A small aliquot (20-50 μl) was removed for protein determination by the Coomassie Plus Protein Assay Reagent (Pierce) using BSA as standard. The membrane suspension was aliquoted in pre-cooled (on dry ice) Eppendorf tubes (0.25-1 ml/tube affording approximately 0.5-2 mg of membrane protein/tube). The pellets were frozen and stored at −80° C.
Scintillation proximity [^35S]GTPγS binding assay: Frozen membranes from CHO-C4 cells expressing recombinant human NPY Y2 receptors (2 mg for four 96-well plates) were thawed on ice. Thawed membranes were pipetted into 10 ml of assay buffer (20 mM HEPES, 10 mM MgCl2, 100 mM NaCl, pH 7.4) and homogenized briefly using a Polytron. The final assay mixture was prepared in 96-well microtiter plates (Isoplate Wallac, Perkin Elmer). The composition of the assay mixtures in a final volume of 250 μl per well was as follows: 20 mM HEPES, 10 mM MgCl2, 100 mM NaCl, pH 7.4, 30 μM GDP, 1 mg/ml BSA (added fresh), 5 μg membrane protein, 1.5 mg Wheatgerm agglutinin SPA beads (Amersham), 0.45 nM [^35S]GTPγS (Amersham, SJ1308. 1000 Ci/mmol, stabilized solution), and the test compounds (agonists and/or antagonists) at the appropriate concentrations. The samples were incubated at room temperature for 90 min by shaking, after which the SPA beads were sedimented by centrifugation in an Eppendorf 5804 centrifuge at 2700 rpm for 10 min at room temperature. After 60 min the plates were counted in a TopCount (Canberra). Basal [^35S]GTPγS binding was measured in the absence of agonist (NPY). Non-specific binding was measured in the presence of excess (10 μM) unlabelled GTPγS (Sigma). Nonspecific binding never exceeded 10% of basal binding and was thus not subtracted from the experimental data. Antagonists were tested for the inhibition of 0.5 nM NPY-stimulated [^35S]GTPγS binding. Antagonist inhibition curves were analyzed by non-linear regression using GraphPad Prism software (Version 4.0, GraphPad Software Inc., CA, USA).
Antagonistic activity of compounds of the present invention is examined by the Scintillation proximity [^35S]GTPγS binding assay as described above (inhibition of 0.5 nM NPY-stimulated [^35S]GTPγS binding). The table below represents percentages of inhibition at a concentration of 10 μM.

In order of rising inhibition at 10 µM:
1. Cc1noc(C)c1-c1nc2cc(N3CCN(C(c4ccccc4)c4ccccc4)CC3)c(F)cc2[nH]1 [Compound 21, 5-(4-Benzhydryl-piperazin-1-yl)-2-(3,5-dimethyl-isoxazol-4-yl)-6-fluoro-1H-benzoimidazole]  44%
2. Fc1cc2[nH]c(C3CCOC3)nc2cc1N1CCN(C(c2ccccc2)c2ccccc2)CC1 (centres unmarked) [Compound 20, 5-(4-Benzhydryl-piperazin-1-yl)-6-fluoro-2-(tetrahydro-furan-3-yl)-1H-benzoimidazole]  53%
3. Cn1cccc1C(=O)Nc1ccc(N2CCN(C(c3ccccc3)c3ccccc3)CC2)c(F)c1 [Compound 11, 1-Methyl-1H-pyrrole-2-carboxylic acid [4-(4-benzhydryl-piperazin-1-yl)-3-fluoro-phenyl]-amide]  62%
4. Cn1nccc1C(=O)Nc1ccc(N2CCN(C(c3ccccc3)c3ccccc3)CC2)c(F)c1 [Compound 12, 2-Methyl-2H-pyrazole-3-carboxylic acid [4-(4-benzhydryl-piperazin-1-yl)-3-fluoro-phenyl]-amide]  65%
5. Cc1noc(C)c1Nc1nc2cc(N3CCN(C(c4ccccc4)c4ccccc4)CC3)c(F)cc2[nH]1 [Compound 22, [5-(4-Benzhydryl-piperazin-1-yl)-6-fluoro-1H-benzoimidazol-2-yl]-(3,5-dimethyl-isoxazol-4-yl)-amine triluoroacetate salt]  71%
6. CCC(CC)Nc1nc2cc(N3CCN(C(c4ccccc4)c4ccccc4)CC3)c(F)cc2[nH]1 [Compound 23, 5-(4-Benzhydryl-piperazin-1-yl)-6-fluoro-1H-benzoimidazol-2-yl]-(1-ethyl-propyl)-amine triluoroacetate salt]  72%
7. CCC(CC)c1nc2cc(N3CCN(C(c4ccccc4)c4ccccc4)CC3)c(F)cc2[nH]1 [Compound 19, 5-(4-Benzhydryl-piperazin-1-yl)-2-(1-ethyl-propyl)-6-fluoro-1H-benzoimidazole]  82%
8. O=C(Nc1ccc(N2CCN(C(c3ccccc3)c3ccccc3)CC2)c(F)c1)C1CCOC1 (centres unmarked) [Compound 5]  85%
9. Cc1noc(C)c1C(=O)Nc1ccc(N2CCN(C(c3ccccc3)c3ccccc3)CC2)c(F)c1 [Compound 9, 3,5-Dimethyl-isoxazole-4-carboxylic acid [4-(4-benzhydryl-piperazin-1-yl)-3-fluoro-phenyl]-amide]  85%
10. Cc1ncccc1C(=O)Nc1ccc(N2CCN(C(c3ccccc3)c3ccccc3)CC2)c(F)c1 [Compound 10, N-[4-(4-Benzhydryl-piperazin-1-yl)-3-fluoro-phenyl]-2-methyl-nicotinamide]  85%
11. CCC(CC)C(=O)Nc1ccc(N2CCC(C(c3ccccc3)c3ccccc3)CC2)c(F)c1 [Compound 18, N-[4-(4-Benzhydryl-piperidin-1-yl)-3-fluoro-phenyl]-2-ethyl-butyramide]  85%
12. Cc1noc(C)c1NC(=O)Nc1ccc(N2CCN(C(c3ccc(F)cc3)c3ccc(F)cc3)CC2)c(F)c1 [Compound 8, 1-(4-{4-[Bis-(4-fluoro-phenyl)-methyl]-piperazin-1-yl}-3-fluoro-phenyl)-3-(3,5-dimethyl-isoxazol-4-yl)-urea]  86%
13. CCC(CC)C(=O)Nc1ccc(N2CCC(C(c3ccccc3)c3ccccc3)CC2)c(C#N)c1 [Compound 15, N-[4-(4-Benzhydryl-piperidin-1-yl)-3-cyano-phenyl]-2-ethyl-butyramide]  86%
14. O=C(Nc1ccc(N2CCC(C(c3ccccc3)c3ccccc3)CC2)c(F)c1)C1CCOC1 (centres unmarked) [Compound 17, Tetrahydro-furan-3-carboxylic acid [4-(4-benzhydryl-piperidin-1-yl)-3-fluoro-phenyl]-amide]  86%
15. Cc1noc(C)c1NC(=O)Nc1ccc(N2CCN(C(c3ccc(F)cc3)c3ccc(F)cc3)CC2)c(C#N)c1 [Compound 7]  87%
16. CCC(CC)C(=O)Nc1ccc(N2CCN(C(c3ccccc3)c3ccccc3)CC2)c(C#N)c1 [Compound 3, N-[4-(4-Benzhydryl-piperazin-1-yl)-3-cyano-phenyl]-2-ethyl-butyramide]  88%
17. N#Cc1cc(NC(=O)C2CCOC2)ccc1N1CCN(C(c2ccccc2)c2ccccc2)CC1 (centres unmarked) [Compound 2, Tetrahydro-furan-3-carboxylic acid [4-(4-benzhydryl-piperazin-1-yl)-3-cyano-phenyl]-amide]  89%
18. Cc1noc(C)c1NC(=O)Nc1ccc(N2CCN(C(c3ccccc3)c3ccccc3)CC2)c(F)c1 [Compound 4, 1-[4-(4-Benzhydryl-piperazin-1-yl)-3-fluoro-phenyl]-3-(3,5-dimethyl-isoxazol-4-yl)-urea]  89%
19. CCC(CC)C(=O)Nc1ccc(N2CCN(C(c3ccccc3)c3ccccc3)CC2)c(F)c1 [Compound 6]  89%
20. N#Cc1cc(NC(=O)C2CCOC2)ccc1N1CCC(C(c2ccccc2)c2ccccc2)CC1 (centres unmarked) [Compound 14, Tetrahydro-furan-3-carboxylic acid [4-(4-benzhydryl-piperidin-1-yl)-3-cyano-phenyl]-amide]  90%
21. Cc1noc(C)c1NC(=O)Nc1ccc(N2CCC(C(c3ccccc3)c3ccccc3)CC2)c(F)c1 [Compound 16, 1-[4-(4-Benzhydryl-piperidin-1-yl)-3-fluoro-phenyl]-3-(3,5-dimethyl-isoxazol-4-yl)-urea]  90%
22. CCC(CC)C(=O)Nc1ccc(N2CCN(C(c3ccccn3)[C@H]3CCCO3)CC2)c(F)c1 (stereo partly drawn) [Compound 25, 2-Ethyl-N-{3-fluoro-4-[4-((R)-pyridin-2-yl-tetrahydro-furan-2-yl-methyl)-piperazin-1-yl]-phenyl}-butyramide]  90%
23. Cc1noc(C)c1NC(=O)Nc1ccc(N2CCC(C(c3ccccc3)c3ccccc3)CC2)c(C#N)c1 [Compound 13]  91%
24. Cc1noc(C)c1NC(=O)Nc1ccc(N2CCN(C(c3ccccc3)c3ccccc3)CC2)c(C#N)c1 [Compound 1, 1-[4-(4-Benzhydryl-piperazin-1-yl)-3-cyano-phenyl]-3-(3,5-dimethyl-isoxazol-4-yl)-urea]  95%
25. CCC(CC)C(=O)Nc1ccc(N2CCC(C(c3ccccn3)c3ccccn3)CC2)c(F)c1 [Compound 24, N-{4-[4-(Di-pyridin-2-yl-methyl)-piperidin-1-yl]-3-fluoro-phenyl}-2-ethyl-butyramide]  95%

Test system: rats
Assay: not given
Settings: icv administration (Thorsell et al. Neurosci. Lett. 2002); cited from earlier work

For `N=C(N)NCCC[C@H](NC(=O)CC1(CC(=O)N2CCN(C3c4ccccc4NC(=O)c4ccccc43)CC2)CCCC1)C(=O)NCCn1c(=O)n(-c2ccccc2)n(-c2ccccc2)c1=O` (some centres unmarked) [BIIE0246], the ethanol self-administration is listed as “dose dependently reduced ethanol self-administration”.
